Some test systems named below: BT-549; CCRF-CEM; DU-145; HCT-116; HCT-15; HOP-62; HT-29; MOLT-4; NCI-H226; NCI-H23; OVCAR-3; OVCAR-4; SF-268; SK-MEL-28; SK-MEL-2; SK-MEL-5; SK-OV-3; SNB-75; T47D.
What all share (assay): NCI-60 cell line screen, 48 h

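Dose response: 5 concentrations. Exposure: 48 h. Format: 96-well plates. Endpoint: linear interpolation; highest concentration if not reached. The concentration for 50% growth inhibition is given as GI50.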 The source made the active and inactive calls. Cut-off read from the data, not from the text of the source: active = GI50 up to about 1.1 µM and inactive = higher.

With `Cc1n2nc(N)sc2n[n+]1Cc1ccccc1`, the GI50 in the test with BT-549 is 74.6 µM (inactive); in the test on CCRF-CEM, > 100 µM (inactive); with DU-145, > 100 µM (inactive); in the test on HCT-116, > 100 µM (inactive); with HCT-15 it was > 100 µM; in the test with HOP-62, 72.6 µM (inactive). The GI50 is > 100 µM (inactive) in the test on HT-29; > 100 µM (inactive) with MOLT-4; > 100 µM (inactive) in the test on NCI-H226; > 100 µM (inactive) in the test on NCI-H23; 89.9 µM (inactive) with OVCAR-3; > 100 µM (inactive) in the test on OVCAR-4. The GI50 was 48.8 µM (inactive) in the test on SF-268; > 100 µM (inactive) in the test with SK-MEL-28; > 100 µM (inactive) in the test on SK-MEL-2; 49.5 µM (inactive) in the test with SK-MEL-5; > 100 µM (inactive) with SK-OV-3; > 100 µM (inactive) with SNB-75. For the same molecule, in the test on T47D, the GI50 is 38.4 µM (inactive).
In the case of `COc1ccc(/C=C/C(=O)c2cc(CN(C)C)c(O)c(CN(C)C)c2)cc1`, the GI50 was 27.9 µM (inactive) in the test with BT-549; 35.2 µM (inactive) in the test on CCRF-CEM; 34.2 µM (inactive) with DU-145; 24.2 µM (inactive) with HCT-116; 40 µM in the test with HCT-15; 21.8 µM (inactive) in the test on HOP-62. Besides, the GI50 is 27.7 µM (inactive) with HT-29; 28.2 µM (inactive) in the test on MOLT-4; 40.1 µM (inactive) in the test with NCI-H226; 46.9 µM (inactive) with NCI-H23; 18 µM (inactive) with OVCAR-3; 75.9 µM (inactive) in the test on SF-268. In addition, the GI50 was 54.2 µM (inactive) with SK-MEL-28, 16.2 µM (inactive) in the test with SK-MEL-5, 19 µM (inactive) with SNB-75 and 19.6 µM (inactive) in the test with T47D.
For `N#Cc1c(N2CCN(c3ccc([N+](=O)[O-])cc3)CC2)[n+]([O-])c2ccc(-c3ccc([N+](=O)[O-])cc3)cc2[n+]1[O-]`, the GI50 is > 100 µM (inactive) with BT-549; 1.28 µM (inactive) in the test with CCRF-CEM; 21.2 µM (inactive) in the test with DU-145; 4.56 µM (inactive) in the test with HCT-116; > 85.5 µM with HCT-15; 1.82 µM (inactive) in the test with HOP-62. Further, the GI50 in the test with HT-29 was > 67.6 µM (inactive); in the test with NCI-H226 it was 33 µM (inactive); in the test with NCI-H23, > 31 µM (inactive); with OVCAR-3, > 19.8 µM (inactive); in the test on OVCAR-4, > 31.2 µM (inactive); in the test with SF-268 it was > 100 µM (inactive). In addition, the GI50 was > 89.3 µM (inactive) in the test with SK-MEL-28; > 37.2 µM (inactive) in the test on SK-MEL-2; 4.18 µM (inactive) in the test on SK-MEL-5; > 100 µM (inactive) in the test with SK-OV-3; > 26.9 µM (inactive) in the test with SNB-75; 3.58 µM (inactive) in the test with T47D.
On to `CC/C=C/C[C@H](O)[C@H]1C[C@H]2O[C@H](CC(=O)OC)C[C@H]2O1`, for which the GI50 was > 100 µM (inactive) with BT-549; > 100 µM (inactive) with CCRF-CEM; > 100 µM (inactive) in the test on DU-145; > 100 µM (inactive) with HCT-116; > 100 µM with HCT-15; > 100 µM (inactive) in the test on HOP-62. For the same molecule, the GI50 in the test with HT-29, with MOLT-4, in the test on NCI-H226, in the test with NCI-H23, in the test on OVCAR-3 and in the test on OVCAR-4 was > 100 µM (inactive) in each case. Besides, the GI50 in the test on SF-268, in the test with SK-MEL-28, with SK-MEL-2, in the test on SK-MEL-5, in the test on SK-OV-3 and in the test on SNB-75 was > 100 µM (inactive) in each case. Moreover, in the test with T47D, the GI50 is > 100 µM (inactive).
For the molecule `COc1ccc(-n2c(C)nc3ccc(NC4OC(COC(C)=O)C(OC(C)=O)C(OC(C)=O)C4OC(C)=O)cc3c2=O)cc1` (centres undefined), the GI50 is > 100 µM (inactive) with BT-549; > 100 µM (inactive) with DU-145; 21.8 µM (inactive) in the test on HCT-116; 76 µM in the test on HCT-15; > 100 µM (inactive) in the test on HOP-62; 53.3 µM (inactive) in the test on HT-29. Moreover, the GI50 is 27.4 µM (inactive) in the test on MOLT-4; 32.7 µM (inactive) with NCI-H226; 60.4 µM (inactive) in the test on NCI-H23; > 100 µM (inactive) with OVCAR-3; > 100 µM (inactive) in the test with OVCAR-4; > 100 µM (inactive) with SF-268. The GI50 is 34 µM (inactive) in the test on SK-MEL-28; > 100 µM (inactive) with SK-MEL-2; > 100 µM (inactive) with SK-MEL-5; > 100 µM (inactive) in the test on SNB-75; > 100 µM (inactive) with T47D.
On to `O=C(CCCN1CCC2(CC1)CC(=O)N(N1CCCCCC1)C2=O)c1ccc(F)cc1`, for which the GI50 is 65.5 µM (inactive) in the test on BT-549; 5.7 µM (inactive) with CCRF-CEM; > 100 µM (inactive) with DU-145; 55 µM (inactive) with HCT-116; > 100 µM in the test with HCT-15; 35.1 µM (inactive) with HOP-62. In addition, the GI50 in the test on HT-29 is 16.4 µM (inactive); in the test on MOLT-4, 36.1 µM (inactive); in the test with NCI-H23, 54.2 µM (inactive); in the test with OVCAR-3 it was > 100 µM (inactive); in the test on OVCAR-4, 40.6 µM (inactive); in the test on SF-268, > 100 µM (inactive). In addition, the GI50 in the test on SK-MEL-28 is > 100 µM (inactive); in the test on SK-MEL-2, > 100 µM (inactive); in the test on SK-MEL-5, 34.4 µM (inactive); in the test with SK-OV-3, 91.6 µM (inactive); with SNB-75, 50.8 µM (inactive); in the test with T47D, 77.1 µM (inactive).
As to `O=c1c2c(oc3ccccc13)-c1ccccc1OC2`, the GI50 is > 100 µM (inactive) in the test with BT-549; > 100 µM (inactive) in the test with CCRF-CEM; 53.3 µM (inactive) with DU-145; 29.9 µM (inactive) in the test on HCT-116; > 100 µM in the test on HCT-15; 88.9 µM (inactive) with HOP-62. Also, the GI50 was > 100 µM (inactive) in the test with HT-29; > 100 µM (inactive) in the test with MOLT-4; > 100 µM (inactive) in the test with NCI-H226; 59.7 µM (inactive) with NCI-H23; > 100 µM (inactive) with OVCAR-3; 57.9 µM (inactive) in the test on SF-268. In addition, the GI50 in the test with SK-MEL-2 is > 100 µM (inactive); in the test with SK-MEL-5, 44.8 µM (inactive); in the test on SK-OV-3, 20.2 µM (inactive); in the test on SNB-75, 16.7 µM (inactive); with T47D, 16.3 µM (inactive).
On to `O=C(NCCCNCCCCNCCCNC(=O)C(F)(F)F)C(F)(F)F`, for which the GI50 in the test with BT-549 is > 100 µM (inactive); in the test with CCRF-CEM, > 100 µM (inactive); with DU-145, > 100 µM (inactive); in the test with HCT-116, > 100 µM (inactive); with HCT-15, > 100 µM; in the test with HOP-62 it was > 100 µM (inactive). Further, the GI50 is > 100 µM (inactive) with HT-29; 0.359 µM (active) with MOLT-4; > 100 µM (inactive) in the test with NCI-H226; > 100 µM (inactive) in the test on NCI-H23; > 100 µM (inactive) in the test with OVCAR-3; > 100 µM (inactive) with OVCAR-4. Moreover, the GI50 in the test with SF-268, in the test on SK-MEL-28, in the test on SK-MEL-2, with SK-MEL-5, with SK-OV-3 and with SNB-75 was > 100 µM (inactive) throughout. In addition, the GI50 in the test with T47D was > 100 µM (inactive).
With `N#CCCN(CCCCN(CCC#N)C(=O)Nc1ccccc1)C(=O)Nc1ccccc1`, the GI50 is > 100 µM (inactive) in the test with BT-549; > 100 µM (inactive) in the test on DU-145; > 100 µM (inactive) in the test with HCT-116; > 100 µM in the test on HCT-15; > 100 µM (inactive) in the test on HOP-62; > 100 µM (inactive) in the test with HT-29. For the same molecule, the GI50 in the test on MOLT-4, with NCI-H226, in the test with NCI-H23, in the test with OVCAR-3, with OVCAR-4 and with SF-268 was > 100 µM (inactive) each time. The GI50 in the test on SK-MEL-28 is > 100 µM (inactive); in the test on SK-MEL-2, > 100 µM (inactive); in the test with SK-MEL-5 it was > 100 µM (inactive); with SK-OV-3, > 100 µM (inactive); with SNB-75, 15.5 µM (inactive); with T47D, > 100 µM (inactive).
`N#C/C(N)=C(C#N)/N=C/Nc1ccc(N)cc1`: the GI50 in the test with BT-549 was > 100 µM (inactive); in the test with CCRF-CEM it was 44.3 µM (inactive); with DU-145, > 100 µM (inactive); with HCT-116 it was > 100 µM (inactive); in the test on HCT-15, > 100 µM; with HOP-62, > 100 µM (inactive). The GI50 in the test with HT-29, in the test on MOLT-4, with NCI-H226, in the test on NCI-H23, with OVCAR-3 and with OVCAR-4 was > 100 µM (inactive) each time. Further, the GI50 in the test with SF-268 is > 100 µM (inactive); in the test with SK-MEL-28 it was > 100 µM (inactive); in the test with SK-MEL-2, > 100 µM (inactive); in the test with SK-MEL-5 it was 29.2 µM (inactive); with SK-OV-3, > 100 µM (inactive); with SNB-75, > 100 µM (inactive). In addition, in the test on T47D, the GI50 was > 100 µM (inactive).
In the case of `C=C(CCOC)CCC1CCCCC/C1=N\N(C)C` (centres undefined), the GI50 in the test with BT-549 was > 100 µM (inactive); in the test on CCRF-CEM, > 100 µM (inactive); in the test on DU-145, > 100 µM (inactive); in the test on HCT-116, > 100 µM (inactive); in the test on HCT-15 it was > 100 µM; in the test with HOP-62 it was > 100 µM (inactive). In addition, the GI50 in the test on HT-29, in the test on MOLT-4, in the test with NCI-H226, in the test with NCI-H23, in the test with OVCAR-3 and with OVCAR-4 was > 100 µM (inactive) in each case. Also, the GI50 in the test with SF-268, in the test with SK-MEL-28, in the test on SK-MEL-2, in the test on SK-MEL-5, in the test on SK-OV-3 and in the test with SNB-75 was > 100 µM (inactive) in each case. For the same molecule, the GI50 with T47D is > 100 µM (inactive).
